Measured values: ChEMBL document CHEMBL2040718, “Synthesis of friedelan triterpenoid analogs with DNA topoisomerase IIα inhibitory activity and their molecular docking studies” (Eur J Med Chem, 2012)
Activity calls are given as the source filed them.

Key:
[1] = biological target: DNA topoisomerase 2-alpha (Homo sapiens) (UniProt P11388); assay: Inhibition of human topoisomerase 2alpha-mediated relaxation of supercoiled pBR322 plasmid DNA after 15 mins using ethidium bromide staining by agarose-gel electrophoresis
[2] = biological target: DNA topoisomerase 2-alpha (Homo sapiens) (UniProt P11388); assay: Complete inhibition of human topoisomerase 2alpha-mediated relaxation of supercoiled pBR322 plasmid DNA at 100 uM after 15 mins using ethidium bromide staining by agarose-gel electrophoresis
[3] = biological target: DNA topoisomerase 2-alpha (Homo sapiens) (UniProt P11388); assay: Complete inhibition of human topoisomerase 2alpha-mediated relaxation of supercoiled pBR322 plasmid DNA at 50 uM after 15 mins using ethidium bromide staining by agarose-gel electrophoresis
[4] = biological target: DNA topoisomerase 2-alpha (Homo sapiens) (UniProt P11388); assay: Partial inhibition of human topoisomerase 2alpha-mediated relaxation of supercoiled pBR322 plasmid DNA at 25 uM after 15 mins using ethidium bromide staining by agarose-gel electrophoresis

Measured: inhibition

Chain of DNA topoisomerase 2-alpha (Homo sapiens) (P11388 whole entry): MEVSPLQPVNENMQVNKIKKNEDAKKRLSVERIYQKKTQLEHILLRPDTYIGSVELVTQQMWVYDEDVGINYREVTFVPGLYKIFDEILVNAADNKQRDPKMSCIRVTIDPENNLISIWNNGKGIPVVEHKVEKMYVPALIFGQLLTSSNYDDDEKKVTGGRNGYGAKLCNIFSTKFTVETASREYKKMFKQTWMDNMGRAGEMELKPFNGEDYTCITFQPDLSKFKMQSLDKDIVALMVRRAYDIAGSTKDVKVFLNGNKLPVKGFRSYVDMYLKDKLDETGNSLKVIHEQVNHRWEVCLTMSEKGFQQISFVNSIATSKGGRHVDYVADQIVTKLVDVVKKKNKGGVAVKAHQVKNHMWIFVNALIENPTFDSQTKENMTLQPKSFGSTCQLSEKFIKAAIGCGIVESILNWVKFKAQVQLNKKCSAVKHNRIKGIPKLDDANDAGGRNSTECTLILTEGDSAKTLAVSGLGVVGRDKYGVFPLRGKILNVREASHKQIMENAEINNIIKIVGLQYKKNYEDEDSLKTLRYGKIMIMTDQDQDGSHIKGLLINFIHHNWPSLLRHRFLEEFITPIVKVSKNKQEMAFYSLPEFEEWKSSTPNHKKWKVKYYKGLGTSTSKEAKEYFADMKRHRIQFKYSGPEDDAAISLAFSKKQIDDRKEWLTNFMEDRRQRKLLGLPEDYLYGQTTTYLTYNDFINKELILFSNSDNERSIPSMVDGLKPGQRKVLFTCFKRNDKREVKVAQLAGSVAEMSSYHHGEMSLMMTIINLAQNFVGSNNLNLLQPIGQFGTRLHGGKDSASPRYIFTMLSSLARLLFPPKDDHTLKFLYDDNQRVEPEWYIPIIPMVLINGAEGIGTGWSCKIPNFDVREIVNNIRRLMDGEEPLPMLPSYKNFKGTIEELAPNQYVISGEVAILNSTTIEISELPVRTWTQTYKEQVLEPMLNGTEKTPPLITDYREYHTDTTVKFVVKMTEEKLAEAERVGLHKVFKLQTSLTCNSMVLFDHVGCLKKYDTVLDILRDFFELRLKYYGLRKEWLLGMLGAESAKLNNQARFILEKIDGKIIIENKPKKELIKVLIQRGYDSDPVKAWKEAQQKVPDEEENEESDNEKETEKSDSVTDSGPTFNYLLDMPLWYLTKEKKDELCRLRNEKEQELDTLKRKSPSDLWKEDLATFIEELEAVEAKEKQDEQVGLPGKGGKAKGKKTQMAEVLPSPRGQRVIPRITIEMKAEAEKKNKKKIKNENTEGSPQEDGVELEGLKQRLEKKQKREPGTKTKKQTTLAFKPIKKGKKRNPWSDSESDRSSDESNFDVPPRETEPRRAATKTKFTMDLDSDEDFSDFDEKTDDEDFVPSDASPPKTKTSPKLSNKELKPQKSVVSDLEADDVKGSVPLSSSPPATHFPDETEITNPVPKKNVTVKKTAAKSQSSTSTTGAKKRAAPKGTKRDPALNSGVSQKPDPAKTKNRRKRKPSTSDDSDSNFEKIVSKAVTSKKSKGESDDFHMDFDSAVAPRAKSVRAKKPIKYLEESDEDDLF

C[C@@H](C(=O)O)[C@@]1(C)CC[C@H]2[C@@](C)(CC[C@@]3(C)[C@@H]4CC(C)(C)CC[C@]4(C)CC[C@]23C)[C@@H]1CC(=O)O
active: [1] Dose-dependent effect | [2] | [3] | [4]

CC(=O)[C@@]1(C)CC[C@H]2[C@@](C)(CC[C@@]3(C)[C@@H]4CC(C)(C)CC[C@]4(C)CC[C@]23C)[C@@H]1CC(=O)O
active: [1] Dose-dependent effect | [2] | [3] | [4]
